# Test system: transplanted human mammary carcinoma which expresses epidermal growth factor receptor tyrosine kinase (EGFR)
# Settings: athymic nude mice; cited from earlier work
row,Compound,growth of transplanted human mammary carcinoma expressing EGFR
1,O=CN/C=C/c1cc(O)ccc1O [erbstatin],selectively attenuates the growth

# Test system: not given
# Settings: not given
row,Compound,melting point
1,Cc1cc2c(Nc3cccc(C(F)(F)F)c3)ncnc2cn1.Cl,269 to 270 °C
2,Oc1cc2ncnc(N3CCc4ccc(Cl)cc43)c2[nH]1,250 °C (dec.)
3,Cc1cc2c(Nc3ccc(O)c(C)c3)ncnc2cn1.Cl.Cl,298 to 305 °C
4,CS(=O)(=O)O.Cc1cc2c(Nc3ccc4[nH]ccc4c3)ncnc2cn1,262 to 263 °C
5,C#Cc1cccc(Nc2ncnc3c2ccn3CCOCCOC)c1,240 to 241 °C
6,Cl.c1nc(Nc2ccc3[nH]ccc3c2)c2cc[nH]c2n1,218 to 221 °C
7,Cc1cc2c(N3CCc4ccc(Br)c(C)c43)ncnc2cn1.Cl,212 to 229 °C
8,C#Cc1cccc(Nc2ncnc3cnc(C)cc23)c1.Cl,250 to 252 °C
9,Clc1ccc2c(c1)N(c1ncnc3cnccc13)CC2,194 to 196 °C
10,c1ccc(Nc2ncnc3ncccc23)cc1,258 °C
11,Cc1cc2c(Nc3ccc(Br)c(F)c3)ncnc2cn1.Cl,251 to 254 °C
12,Cc1cccc(Nc2ncnc3cnccc23)c1,172 °C
13,Cc1cc2c(Nc3ccc(F)c(Cl)c3)ncnc2cn1.Cl,251 to 258 °C
14,Cc1cc2c(N3CCc4cc(F)c(Br)cc43)ncnc2cn1.Cl,262 to 264 °C
15,C#Cc1cc(Nc2ncnc3cnc(C)cc23)ccc1F,225 °C
16,C#Cc1cccc(Nc2ncnc3cc(C)ncc23)c1.Cl,240 to 241 °C
17,Cc1cc2c(N3CCc4ccc(Cl)cc43)ncnc2cn1,232 to 234 °C
18,Cc1cc2c(N3CCc4c(Br)ccc(C)c43)ncnc2cn1.Cl,232 to 244 °C
19,Cl.c1cc2c(Nc3ccc4sccc4c3)ncnc2cn1,280 to 282 °C
20,c1ccc(Nc2ncnc3cnccc23)cc1,161 °C
21,Cl.Clc1ccc2c(c1)N(c1ncnc3[nH]ccc13)CC2,266 °C (dec.)
22,Cc1cc2c(Nc3ccc(O)c(I)c3)ncnc2cn1.Cl,261 to 265 °C
23,Cc1cc2c(Nc3ccc(F)c(C)c3)ncnc2cn1.Cl,246 to 250 °C

# Test system: another carcinoma which does not express the EGF receptor
# Settings: athymic nude mice; cited from earlier work
row,Compound,growth of carcinoma not expressing the EGF receptor
1,O=CN/C=C/c1cc(O)ccc1O [erbstatin],without effect on the growth

# Source: patent US6395733B1, “Heterocyclic ring-fused pyrimidine derivatives” (Pfizer Inc, priority 1999, dated 2002)
